Laboratory results reported in patent publication US20150245611A1, “ACTIVE INGREDIENT FOR CONTROLLING TRUE SPIDER MITES” (BAYER CROPSCIENCE AG, priority 2014, published 2015).

Tests used:
Format in all cases: in vivo
Tetranychus urticae [1] = assay: Tetranychus urticae test; outdoor spray treatment (TETRUR) on cotton plants; conditions: G. hirsutum
Method: (§1) To produce an appropriate active ingredient formulation, 1 part by weight of active ingredient is mixed with the stated amounts of water to the desired concentration. Added to the spray liquor is 0.1% a.i. Crovol.
Three cotton plants (Gossypium hirsutum) infested by all stages of the red spider mite (Tetranychus urticae) are sprayed with an active ingredient formulation of each desired concentration. One spray application is conducted in each case.
After the desired time, the remaining mites per leaf are counted and calculated as the efficacy by the Abbott formula:
[formula] • B=treated plots • K=untreated control plots

[2] = tested on: Polyphagotarsonemus latus; assay: Polyphagotarsonemus latus test; outdoor spray treatment (HEMTLA) on bean plants; conditions: Ph. vulgaris, three sprays at 7-day intervals
Method: as §1
Three bean plants (Phaseolus vulgaris) infested by all stages of the broad mite (Polyphagotarsonemus latus) are sprayed with an active ingredient formulation of each desired concentration. Each plant is treated three times at 7-day intervals with a spray application with a water application rate of 200 l/Ha. The juncture of treatment of the plants with the first spray application X corresponds to the start point of the evaluation (Dat=0) (Dat=days after treatment). The further treatments were effected after 7 days (spray application Y), the third treatment after 14 days (spray application Z).
(§2) After the desired time, the remaining mites per leaf are counted and calculated as the efficacy by the Abbott formula: […]

[3] = tested on: Polyphagotarsonemus latus; assay: Polyphagotarsonemus latus test; outdoor spray treatment (HEMTLA) on chilli plants; conditions: C. frutescens
Method: as §1
Three chilli plants (Capsicum frutescens) infested by all stages of the broad mite (Polyphagotarsonemus latus) are sprayed with an active ingredient formulation of each desired concentration. A spray application with a water application rate of 458 l/Ha is conducted in each case.
as §2

[4] = tested on: Polyphagotarsonemus latus; assay: Polyphagotarsonemus latus test; outdoor spray treatment (HEMTLA) on bell pepper plants; conditions: Capsicum annuum, 100 g of ai/ha
Method: as §1
Three bell pepper plants (Capsicum annuum) infested by all stages of the broad mite (Polyphagotarsonemus latus) are sprayed with an active ingredient formulation of each desired concentration. A spray application with a water application rate of 500 l/Ha is conducted in each case.
as §2

[5] = tested on: Polyphagotarsonemus latus; assay: Polyphagotarsonemus latus test; outdoor spray treatment (HEMTLA) on aubergine plants; conditions: S. melongena, 100 g of ai/ha, Dat 16
Method: as §1
Three aubergine plants (Solanum melongena) infested by all stages of the broad mite (Polyphagotarsonemus latus) are sprayed with an active ingredient formulation of each desired concentration. A spray application with a water application rate of 500 l/Ha is conducted in each case.
as §2

Tetranychus urticae [6] = assay: Tetranychus urticae test; outdoor spray treatment (TETRUR) on aubergine plants; conditions: S. melongena
Method: as §1
Three aubergine plants (Solanum melongena) infested by all stages of the red spider mite (Tetranychus urticae) are sprayed with an active ingredient formulation of each desired concentration. One spray application is conducted in each case.
as §2

[7] = 75 g of ai/ha (+Crovol 0.1%), Dat 7
[8] = 100 g of ai/ha (+Crovol 0.1%), Dat 21
[9] = 100 g of ai/ha (+Crovol 0.1%), Dat 7
[10] = 100 g of ai/ha (+Crovol 0.1%), Dat 14

Cc1nn(C)c(/C(OC(=O)C(C)(C)C)=C(\C#N)c2ccc(C(C)(C)C)cc2)c1C [Cyenopyrafen, reference compound]
Efficacy (% Abbott) (Tetranychus urticae [1]; 150 g of ai/ha, Dat 4): 98 % Abbott | Efficacy (% Abbott) (Tetranychus urticae [1]; 150 g of ai/ha, Dat 6): 99 % Abbott | Efficacy (% Abbott) ([2]; 150 g of ai/ha, Dat 3): 83.7 % Abbott | Efficacy (% Abbott) ([2]; 150 g of ai/ha, Dat 7 (Y)): 63.8 % Abbott | Efficacy (% Abbott) ([2]; 150 g of ai/ha, Dat 14 (Z)): 48.5 % Abbott | Efficacy (% Abbott) ([2]; 150 g of ai/ha, Dat 21): 58.1 % Abbott | Efficacy (% Abbott) ([2]; 150 g of ai/ha, Dat 28): 0 % Abbott | Efficacy (% Abbott) ([3]; 150 g of ai/ha, Dat 7): 28 % Abbott | Efficacy (% Abbott) ([3]; 150 g of ai/ha, Dat 14): 45 % Abbott | Efficacy (% Abbott) ([3]; 150 g of ai/ha, Dat 21): 0 % Abbott

CC(C)(C)c1ccc(CCOc2ncnc3ccccc23)cc1 [Fenazaquin, reference compound]
Efficacy (% Abbott) ([4]; Dat 3): 92.3 % Abbott | Efficacy (% Abbott) ([4]; Dat 7): 96 % Abbott | Efficacy (% Abbott) ([4]; Dat 15): 77.4 % Abbott | Efficacy (% Abbott) ([4]; Dat 21): 33.5 % Abbott | Efficacy (% Abbott) [5]: 97.9 % Abbott

CCC(C)(C)C(=O)OC1=C(c2ccc(Cl)cc2Cl)C(=O)OC12CCCCC2 [Spirodiclofen, reference compound]
Efficacy (% Abbott) (Tetranychus urticae [6]; 48 g of ai/ha, Dat 5): 63 % Abbott | Efficacy (% Abbott) (Tetranychus urticae [6]; 48 g of ai/ha, Dat 7): 89 % Abbott | Efficacy (% Abbott) (Tetranychus urticae [6]; 48 g of ai/ha, Dat 14): 97.5 % Abbott | Efficacy (% Abbott) (Tetranychus urticae [6]; 48 g of ai/ha, Dat 21): 95 % Abbott | Efficacy (% Abbott) (Tetranychus urticae [6]; 48 g of ai/ha, Dat 29): 80 % Abbott

Cn1nc(C(F)(F)C(F)(F)F)c(C(F)(F)F)c1C(=O)Nc1ccc(Cl)c(C(=O)NCc2ccccc2)c1 [Compound (I)]
Efficacy (% Abbott) ([4]; Dat 3): 100 % Abbott | Efficacy (% Abbott) ([4]; Dat 7): 99.8 % Abbott | Efficacy (% Abbott) ([4]; Dat 15): 95.9 % Abbott | Efficacy (% Abbott) ([4]; Dat 21): 85.5 % Abbott | Efficacy (% Abbott) [5]: 100 % Abbott | Efficacy (% Abbott) (Tetranychus urticae [1]; 100 g of ai/ha (+Crovol 0.1%), Dat 4): 100 % Abbott | Efficacy (% Abbott) (Tetranychus urticae [1]; 100 g of ai/ha (+Crovol 0.1%), Dat 6): 100 % Abbott | Efficacy (% Abbott) ([2]; 75 g of ai/ha (+Crovol 0.1%), Dat 3): 72 % Abbott | Efficacy (% Abbott) [2, 7]: 80.7 % Abbott | Efficacy (% Abbott) ([2]; 75 g of ai/ha (+Crovol 0.1%), Dat 14 (Y)): 81.2 % Abbott | Efficacy (% Abbott) ([2]; 75 g of ai/ha (+Crovol 0.1%), Dat 21 (Z)): 79.2 % Abbott | Efficacy (% Abbott) ([2]; 75 g of ai/ha (+Crovol 0.1%), Dat 28): 49.7 % Abbott | Efficacy (% Abbott) ([2]; 100 g of ai/ha (+Crovol 0.1%), Dat 3): 81.4 % Abbott | Efficacy (% Abbott) ([2]; 100 g of ai/ha (+Crovol 0.1%), Dat 7 (Y)): 91.5 % Abbott | Efficacy (% Abbott) ([2]; 100 g of ai/ha (+Crovol 0.1%), Dat 14 (Z)): 90 % Abbott | Efficacy (% Abbott) [2, 8]: 91.9 % Abbott | Efficacy (% Abbott) ([2]; 100 g of ai/ha (+Crovol 0.1%), Dat 28): 52.7 % Abbott | Efficacy (% Abbott) [3, 7]: 63 % Abbott | Efficacy (% Abbott) ([3]; 75 g of ai/ha (+Crovol 0.1%), Dat 14): 67 % Abbott | Efficacy (% Abbott) ([3]; 75 g of ai/ha (+Crovol 0.1%), Dat 21): 50 % Abbott | Efficacy (% Abbott) [3, 9]: 75 % Abbott | Efficacy (% Abbott) [3, 10]: 75 % Abbott | Efficacy (% Abbott) [3, 8]: 83 % Abbott | Efficacy (% Abbott) (Tetranychus urticae [6]; 100 g of ai/ha (+Crovol 0.1%), Dat 5): 99 % Abbott | Efficacy (% Abbott) (Tetranychus urticae [6]; [9]): 100 % Abbott | Efficacy (% Abbott) (Tetranychus urticae [6]; [10]): 100 % Abbott | Efficacy (% Abbott) (Tetranychus urticae [6]; [8]): 99 % Abbott | Efficacy (% Abbott) (Tetranychus urticae [6]; 100 g of ai/ha (+Crovol 0.1%), Dat 29): 99 % Abbott
